# Data from US12226409B2, “Treatment of hepatocellular carcinoma” (Eisai R&D Management Co., Ltd., priority 2017, dated 2025).
# Tested on: patients with unresectable HCC
# Assay: Open-label phase 3 study, safety and side-effect profile (CTCAE v4.0)
# Conditions: whole arm
# From the text: Randomization was stratified according to region (Asia-Pacific or Western regions), macroscopic portal vein invasion and/or extrahepatic spread (yes or no), Eastern Cooperative Oncology Group performance status (0 or 1), and body weight (<60 kg or ≥60 kg).
# Safety assessments included recording of vital signs, hematologic and biochemical laboratory testing, urinalysis, and electrocardiography.
smiles,measurement,value
"COc1cc2nccc(Oc3ccc(NC(=O)NC4CC4)c(Cl)c3)c2cc1C(N)=O [Lenvatinib, 4-(3-chloro-4(cyclopropylaminocarbonyl)aminophenoxy)-7-methoxy-6-quinolinecarboxamide]",Dose reduction/interruption: Blood and lymphatic system disorders,16 (3.4) n (%)
same,Dose reduction/interruption: Blood bilirubin increased,20 (4.2) n (%)
same,Dose reduction/interruption: Decreased appetite,36 (7.6) n (%)
same,Dose reduction/interruption: Dehydration,6 (1.3) n (%)
same,Dose reduction/interruption: Diarrhea,36 (7.6) n (%)
same,Dose reduction/interruption: Dyspnea,8 (1.7) n (%)
same,Dose reduction/interruption: Edema peripheral,6 (1.3) n (%)
same,Dose reduction/interruption: Esophageal varices hemorrhage,5 (1.1) n (%)
same,Dose reduction/interruption: Fatigue,27 (5.7) n (%)
same,Dose reduction/interruption: Gamma-glutamyltransferase increased,7 (1.5) n (%)
same,Dose reduction/interruption: Gastrointestinal disorders,87 (18.3) n (%)
same,Dose reduction/interruption: General disorders and administration site conditions,67 (14.1) n (%)
same,Dose reduction/interruption: Hepatic encephalopathy,20 (4.2) n (%)
same,Dose reduction/interruption: Hepatic function abnormal,2 (0.4) n (%)
same,Dose reduction/interruption: Hepatobiliary disorders,27 (5.7) n (%)
same,Dose reduction/interruption: Hypertension,29 (6.1) n (%)
same,Dose reduction/interruption: Hyponatremia,5 (1.1) n (%)
same,Dose reduction/interruption: Investigations,81 (17.0) n (%)
same,Dose reduction/interruption: Malaise,5 (1.1) n (%)
same,Dose reduction/interruption: Metabolism and nutrition disorders,52 (10.9) n (%)
same,Dose reduction/interruption: Musculoskeletal and connective tissue disorders,18 (3.8) n (%)
same,Dose reduction/interruption: Myalgia,5 (1.1) n (%)
same,Dose reduction/interruption: Nausea,16 (3.4) n (%)
same,Dose reduction/interruption: Nervous system disorders,35 (7.4) n (%)
same,Dose reduction/interruption: Neutropenia,6 (1.3) n (%)
same,Dose reduction/interruption: Neutrophil count decreased,11 (2.3) n (%)
same,Dose reduction/interruption: Palmar-plantar erythrodysesthesia syndrome,25 (5.3) n (%)
same,Dose reduction/interruption: Platelet count decreased,22 (4.6) n (%)
same,Dose reduction/interruption: Proteinuria,33 (6.9) n (%)
same,Dose reduction/interruption: Pyrexia,12 (2.5) n (%)
same,Dose reduction/interruption: Rash,2 (0.4) n (%)
same,Dose reduction/interruption: Rash maculo-papular,0 (0.0) n (%)
same,Dose reduction/interruption: Renal and urinary disorders,40 (8.4) n (%)
same,"Dose reduction/interruption: Respiratory, thoracic and mediastinal disorders",16 (3.4) n (%)
same,Dose reduction/interruption: Skin and subcutaneous tissue disorders,28 (5.9) n (%)
same,Dose reduction/interruption: Stomatitis,6 (1.3) n (%)
same,Dose reduction/interruption: Thrombocytopenia,6 (1.3) n (%)
same,Dose reduction/interruption: Vascular disorders,33 (6.9) n (%)
same,Dose reduction/interruption: Vomiting,12 (2.5) n (%)
same,Dose reduction/interruption: Weight decreased,20 (4.2) n (%)
same,Dose reduction/interruption: White blood cell count decreased,6 (1.3) n (%)
same,Subjects with Any TEAEs,470 (98.7) n (%)
same,Subjects with any TEAEs leading to Dose Reduction or Interruption,294 (61.8) n (%)
same,TEAE: Abdominal pain,81 (17.0) n (%)
same,TEAE: Abdominal pain upper,58 (12.2) n (%)
same,TEAE: Alanine aminotransferase increased,53 (11.1) n (%)
same,TEAE: Alopecia,14 (2.9) n (%)
same,TEAE: Ascites,68 (14.3) n (%)
same,TEAE: Aspartate aminotransferase increased,65 (13.7) n (%)
same,TEAE: Asthenia,54 (11.3) n (%)
same,TEAE: Back pain,50 (10.5) n (%)
same,TEAE: Blood bilirubin increased,71 (14.9) n (%)
same,TEAE: Constipation,76 (16.0) n (%)
same,TEAE: Decreased appetite,162 (34.0) n (%)
same,TEAE: Diarrhea,184 (38.7) n (%)
same,TEAE: Dysphonia,113 (23.7) n (%)
same,TEAE: Edema peripheral,66 (13.9) n (%)
same,TEAE: Fatigue,141 (29.6) n (%)
same,TEAE: Hypertension,201 (42.2) n (%)
same,TEAE: Hypothyroidism,78 (16.4) n (%)
same,TEAE: Nausea,93 (19.5) n (%)
same,TEAE: Palmar-plantar erythrodysesthesia syndrome,128 (26.9) n (%)
same,TEAE: Platelet count decreased,87 (18.3) n (%)
same,TEAE: Proteinuria,117 (24.6) n (%)
same,TEAE: Pyrexia,69 (14.5) n (%)
same,TEAE: Rash,46 (9.7) n (%)
same,TEAE: Stomatitis,45 (9.5) n (%)
same,TEAE: Vomiting,77 (16.2) n (%)
same,TEAE: Weight decreased,147 (30.9) n (%)
